Data on 21 compounds can be found in patent US20250059141A1, “TLR MODULATOR AND USE THEREOF” (DUALITY BIOLOGICS (SUZHOU) CO., LTD., priority 2021, published 2025).

Like-named read-outs stand apart in the source and are kept apart here.

Assay [1] relates to IFN-α production in human PBMCs. Description: Induction of IFN-α in human PBMCs (ELISA). The assay is classed as cell-based. The settings on record: PBMC, 24 h, read-out: PBMC assay IFNa EC50. The method, then: In this example, the induction activity of the compounds of the present application on human PBMCs for TNF-α and IFN-α production was assessed in human PBMCs (human peripheral blood mononuclear cells). The human PBMCs were purchased from Shanghai Saily Biotechnology Co., Ltd. (Cat. No. XFB—HP100B). PBMC cells were treated with the compounds. The compounds of the present application are diluted in DMSO, for example, to about 15 mM. The reference compound was added to the plates in sequence after diluted to 5 mg/mL. The compounds were serially 3- or 4-fold diluted to 8 concentrations and added to plates in duplicate (Table 2-1 for serial 3-fold dilutions and Table 2-2 for serial 4-fold dilutions). For the negative control wells, DMSO was added at 0.4 μL/well, and a 5 mg/mL reference compound solution was added to the positive control wells at 0.4 μL/well. The final concentration of DMSO was 0.2%. Frozen human PBMCs in cryopreservation tubes were quickly thawed in a 37° C. water bath and transferred into 50-mL centrifuge tubes. Prewarmed RPMI1640 medium was gradually added and the mixture was well mixed and centrifuged for 15 min before the supernatant was discarded. The cells were resuspended in a culture medium and counted. The cell suspension was adjusted to 2.5×10^6 cells/mL with the culture medium. Diluted cells were added at 200 μL/500,000 cells/well in 96-well plates containing the compounds. The cell plates were incubated at 37° C./5% CO2 for 24 h.
The plate was washed 4 times, then the detection antibody was added. […] The plate was washed 4 additional times, then the enzyme was added. […] Termination of reaction: The reaction was terminated by quickly adding the stop solution at 100 μL/well. Plate reading: The reading at wavelength 450 nm was detected by an M2e instrument within 10 min after the termination.
Compound activity data analysis: The OD450 values were converted to TNF-α and IFN-α contents by GraphPad Prism software analysis and fitted to give dose-response curves of the compounds. The EC50 values for the compounds were calculated, where the Emax values are the maximal values for TNF-α and IFN-α.

Assay [2] addresses T1, hTLR7 (human Toll-like receptor 7) (Homo sapiens, UniProt Q9NYK1).
T1 construct: host or cells: HEK-Blue hTLR7 (HEK293-derived reporter cells)
T1 sequence (Q9NYK1 27-1049): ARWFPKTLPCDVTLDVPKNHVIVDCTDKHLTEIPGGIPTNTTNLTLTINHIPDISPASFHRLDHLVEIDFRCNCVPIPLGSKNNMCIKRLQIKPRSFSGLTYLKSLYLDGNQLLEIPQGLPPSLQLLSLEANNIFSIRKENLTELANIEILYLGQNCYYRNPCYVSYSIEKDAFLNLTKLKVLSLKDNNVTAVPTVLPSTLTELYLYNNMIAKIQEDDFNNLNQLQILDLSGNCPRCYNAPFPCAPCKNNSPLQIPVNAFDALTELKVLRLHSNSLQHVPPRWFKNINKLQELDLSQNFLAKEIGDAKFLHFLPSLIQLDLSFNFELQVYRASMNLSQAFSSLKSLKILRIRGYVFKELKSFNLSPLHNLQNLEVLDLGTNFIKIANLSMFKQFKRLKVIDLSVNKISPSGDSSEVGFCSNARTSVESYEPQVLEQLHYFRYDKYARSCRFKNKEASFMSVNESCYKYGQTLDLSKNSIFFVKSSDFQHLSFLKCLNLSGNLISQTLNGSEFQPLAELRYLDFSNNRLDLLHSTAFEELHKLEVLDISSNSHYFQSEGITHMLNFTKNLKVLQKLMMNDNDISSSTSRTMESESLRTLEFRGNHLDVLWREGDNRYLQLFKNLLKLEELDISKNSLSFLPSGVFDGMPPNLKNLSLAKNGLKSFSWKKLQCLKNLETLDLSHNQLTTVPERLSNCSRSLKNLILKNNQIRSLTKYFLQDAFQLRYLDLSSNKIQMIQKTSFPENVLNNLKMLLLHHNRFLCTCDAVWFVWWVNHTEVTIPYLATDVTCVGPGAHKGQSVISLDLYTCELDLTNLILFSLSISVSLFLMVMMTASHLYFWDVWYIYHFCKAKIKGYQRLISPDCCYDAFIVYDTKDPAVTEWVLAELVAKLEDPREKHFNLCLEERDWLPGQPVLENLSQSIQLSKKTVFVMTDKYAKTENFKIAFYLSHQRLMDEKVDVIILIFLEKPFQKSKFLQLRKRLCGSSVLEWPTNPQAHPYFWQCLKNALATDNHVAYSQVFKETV
The assay can be described thus: HEK-Blue hTLR7 reporter assay (QUANTI-Blue, OD650). Conditions: HEK-Blue hTLR7 cells, 24 h, read-out: Reporter assay TLR7 EC50. It counts as cell-based. The method, then: In this example, the agonistic activity of the compounds of the present application on hTLR7 (human Toll-like receptor 7) and hTLR8 (human Toll-like receptor 8) was assessed; the induction activity of the compounds on human PBMCs for TNF-α and IFN-α production was assessed in human PBMCs (human peripheral blood mononuclear cells).
All compounds were formulated in DMSO into 30 mM stock solutions and preserved at 4° C. The reference compound ([…], Cat. No. tlrl-r848-5) was purchased from InvivoGen and formulated into a 5 mg/mL stock solution in DMSO and preserved in a freezer at −20° C. HEK-Blue hTLR7 and HEK-Blue hTLR8 cell lines were purchased from InvivoGen, and human PBMCs were purchased from Shanghai Saily Biotechnology Co., Ltd. (Cat. No. XFB—HP100B).
The major instruments used in this study were multifunctional microplate reader Flexstation III (Molecular Device), Envision (Perkin Elmer), M2e (Molecular Device), and Echo555 (Labcyte). 2.1 Agonistic activity of compounds on hTLR7 (human Toll-like receptor 7) and hTLR8 (human Toll-like receptor 8)
Compound dilution: The compounds of the present application are diluted in DMSO, for example, to about 15 mM. The reference compound was added to the plates in sequence after dilution. The compounds were serially 3-fold diluted to 10 concentrations and added to 96-well plates in duplicate.
For the negative control wells, DMSO was added at 0.2 μL/well, and the reference compound was added to the positive control wells. The final concentration of DMSO was 0.2%.
Cell plating: When an 80% confluence of HEK Blue hTLR7&8 cells in the culture flask was observed under a microscope, the culture medium was discarded, 10 mL of detection medium was added, and the cells were separated by pipetting. The cells were counted on a cytometer and diluted to 500,000 cells/mL. The cells were plated at 100 μL/50,000 cells/well in the 96-well plates containing the compounds. The compounds and cells were co-incubated at 37° C. in a 5% CO2 incubator for 24 hours.
Compound activity detection: 20 μL of cell supernatant was taken from each well and added to a plate containing QUANTI-Blue™ reagent at 180 μL/well. The plate was incubated at 37° C. for 1 hour, and the absorbance at 650 nm (OD650) was measured on the multifunctional microplate reader Flexstation III.
Compound activity data analysis: The OD650 values were analyzed by GraphPad Prism software and fitted to give dose-response curves of the compounds. The EC50 values of compounds were calculated.
A general note: A reporter such as luciferase makes a cellular process visible.

The mark [3] stands for this setting: serial 4-fold dilutions, class symbols.

What is called EC50 is the concentration needed to bring the measured effect to its halfway point.

Take `CCCN(OCc1ccc(N)cc1)C(=O)C1=Cc2ccc(C(=O)N3CC4(COC4)C3)cc2N=C(N)C1` [Compound 95]: the half-maximal effective concentration (EC50) in assay [1] (setting [3]) was 50 to 500 nM; in assay [2] (class symbols), more than 1000 nM.

In the case of `CCCN(OCc1ccc(N)cc1)C(=O)C1=Cc2ccc(C(=O)N3CC(CO)C3)cc2N=C(N)C1` [Compound 37], the EC50 in assay [1] (setting [3]) was more than 500 nM; in assay [2] (class symbols), more than 1000 nM.

Regarding `CCCN(OCc1ccc(N)cc1)C(=O)C1=Cc2ccc(-c3ccc4c(c3)C(=O)OC4)cc2N=C(N)C1` [Compound 43], the EC50 was determined as 29.6 nM in assay [1] (serial 3-fold dilutions) and 180 nM in assay [2].

Take `CCCN(OCc1ccc(N)cc1)C(=O)C1=Cc2ccc(-c3cncc(C#N)c3)cc2N=C(N)C1` [Compound 50]: the EC50 came to 41.5 nM in assay [1] (serial 3-fold dilutions) and 274 nM in assay [2].

Take `CCCN(OCc1ccc(N)cc1)C(=O)C1=Cc2ccc(C(=O)N3CCN(C)CC3)cc2N=C(N)C1` [Compound 93]: the half-maximal effective concentration (EC50) in assay [1] (setting [3]) was 50 to 500 nM; in assay [2] (class symbols) it was more than 1000 nM.

`CCCN(OCc1ccc(N)cc1)C(=O)C1=Cc2ccc(-c3cncc(S(=O)(=O)N4CCNCC4)c3)cc2N=C(N)C1` [Compound 69]: the EC50 in assay [1] (setting [3]) was 50 to 500 nM; in assay [2] (class symbols) it was 100 to 1000 nM.

Turning to `CCCN(OCc1ccc(N)cc1)C(=O)C1=Cc2ccc(C(=O)N3CCOC(CO)C3)cc2N=C(N)C1` (stereo not drawn) [Compound 47], the figures for the EC50 in assay [1] (setting [3]) and in assay [2] (class symbols) were 50 to 500 nM and more than 1000 nM, respectively.

As for `NC1=Nc2cc(-c3cncc(CO)c3)ccc2C=C(C(=O)N(CC2CC2)OCc2ccc(N)cc2)C1` [Compound 45], the values for the 50% effective concentration (EC50) in assay [1] (serial 3-fold dilutions) and in assay [2] were 7.25 nM and 1160 nM, respectively.

For `CCCN(OCc1ccc(N)cc1)C(=O)C1=Cc2ccc(-c3cncc([S+](C)[O-])c3)cc2N=C(N)C1` (stereo not drawn) [Compound 73], the 50% effective concentration (EC50) in assay [1] (setting [3]) was not above 10 nM; in assay [2] (class symbols) it was 100 to 1000 nM.

On to `CCCN(OCc1ccc(N)cc1)C(=O)C1=Cc2ccc(-c3cncc(S(N)(=O)=O)c3)cc2N=C(N)C1` [Compound 36], for which the concentration for a half-maximal effect (EC50) amounted to 6.05 nM in assay [1] (serial 3-fold dilutions) and 1080 nM in assay [2].

For `CCCN(OCc1ccc(N)cc1)C(=O)C1=Cc2ccc(-c3cncc(Cl)c3)cc2N=C(N)C1` [Compound 49], the EC50 in assay [1] (serial 3-fold dilutions) is 48.2 nM; in assay [2], 245 nM.

`CCCN(OCc1ccc(N)cc1)C(=O)C1=Cc2ccc(C(=O)NCCO)cc2N=C(N)C1` [Compound 48]: the concentration for a half-maximal effect (EC50) is more than 500 nM in assay [1] (setting [3]) and more than 1000 nM in assay [2] (class symbols).

For the compound `CCCN(OCc1ccc(N)cc1)C(=O)C1=Cc2ccc(-c3cncc(C(=O)O)c3)cc2N=C(N)C1` [Compound 32], the EC50 in assay [1] (setting [3]) is 50 to 500 nM; in assay [2] (class symbols) it was more than 1000 nM.

For `CCCN(OCc1ccc(N)cc1)C(=O)C1=Cc2ccc(C(=O)NC3CCOCC3)cc2N=C(N)C1` [Compound 84], the EC50 in assay [1] (setting [3]) was 50 to 500 nM; in assay [2] (class symbols), more than 1000 nM.

For the compound `CCCN(OCc1ccc(N)cc1)C(=O)C1=Cc2ccc(C(=O)Nc3ccc4cn[nH]c4c3)cc2N=C(N)C1` [Compound 89], the EC50 in assay [1] (setting [3]) is 50 to 500 nM; in assay [2] (class symbols) it was more than 1000 nM.

Consider `CCCN(OCc1ccc(N)cc1)C(=O)C1=Cc2ccc(-c3cncc(CN)c3)cc2N=C(N)C1` [Compound 54], for which the EC50 worked out at 5.35 nM in assay [1] (serial 3-fold dilutions) and 528 nM in assay [2].

Regarding `CCCN(OCc1ccc(N)cc1)C(=O)C1=Cc2ccc(C(=O)Nc3cccnc3)cc2N=C(N)C1` [Compound 40], the EC50 in assay [1] (serial 3-fold dilutions) came out at 1320 nM; in assay [2], 11700 nM.

For the compound `CCCN(OCc1ccc(N)cc1Cl)C(=O)C1=Cc2ncc(-c3cncc(CO)c3)cc2N=C(N)C1` [Compound 59], the EC50 lay within 50 to 500 nM in assay [1] (setting [3]) and 100 to 1000 nM in assay [2] (class symbols).

Regarding `CCCN(OCc1ccc(N)cc1)C(=O)C1=Cc2ccc(-c3cccc(S(=O)(=O)N4CCC(O)CC4)c3)cc2N=C(N)C1` [Compound 66], the results for the half-maximal effective concentration (EC50) in assay [1] (setting [3]) and in assay [2] (class symbols) were 50 to 500 nM and 100 to 1000 nM, respectively.

For the compound `CCCN(OCc1ccc(N)cc1)C(=O)C1=Cc2ccc(C(=O)Nc3ccn(C)n3)cc2N=C(N)C1` [Compound 88], the EC50 in assay [1] (setting [3]) was 50 to 500 nM; in assay [2] (class symbols), more than 1000 nM.

On to `CCCN(OCc1ccc(N)cc1)C(=O)C1=Cc2ccc(-c3cncc(CO)c3)nc2N=C(N)C1` [Compound 62], for which the EC50 is not above 10 nM in assay [1] (setting [3]) and 100 to 1000 nM in assay [2] (class symbols).
